Values after ≈ are worked out from the molar mass of the structure shown.
conditions: buffer; pH 7.4; 200.0 µM

Structure (SMILES) | solubility kinetic [µg/mL]
CCNC(=S)Nc1ccc2ncoc2c1 | > 33.2
O=C(COC(=O)c1ccc([N+](=O)[O-])o1)NC1CCCc2ccccc21 (stereo not drawn) | 26.3 (≈ 76.4 µM)
Cn1c(=S)oc2ccccc21 | 14.9 (≈ 90.2 µM)
O=C(O)CSCc1nc2scc(-c3ccccc3)c2c(=O)[nH]1 | > 49.9
CC1CCN(C(=O)c2ccccc2NC(=O)Cc2ccccc2)CC1 | > 50.5
CCOC(=O)c1cccc(NC(=O)Nc2ccc3c(c2)C(=O)OC3)c1 | < 0.4
COc1cccc2[nH]c(C(=O)NCC3CCCO3)cc12 (stereo not drawn) | > 41.1
N/C(=N\OC(=O)c1ccc(Cl)c([N+](=O)[O-])c1)c1ccccn1 | 2.7 (≈ 8.42 µM)
COc1ccccc1NC(=O)/C(C#N)=C/c1ccncc1 | 36 (≈ 129 µM)
O=C(O)c1ccc(S(=O)(=O)c2ccc([N+](=O)[O-])cc2[N+](=O)[O-])cc1 | > 52.8
CCCCn1c(N)c(N(CCOC)C(=O)CN(C)CC(=O)Nc2ccc(Cl)c(Cl)c2)c(=O)[nH]c1=O | > 79.4
CC1CCCCC1NC(=O)c1ccc2c(c1)OCCO2 (stereo not drawn) | > 41.3
CC(O)Cn1cnc2c1c(=O)n(C)c(=O)n2C (stereo not drawn) | > 35.7
S=C(NCCN1CCOCC1)NC1CCCCC1 | 38.5 (≈ 142 µM)
COc1ccc(/C=C\c2nc(O)c([N+](=O)[O-])c(=O)[nH]2)cc1O | > 45.8
COc1ccc(NC(=O)c2ccccc2SC)c(OC)c1 | > 45.5
O=c1c2sc(-c3ccccc3)cc2nc2n1CCCCC2 | 29.5 (≈ 99.5 µM)
CC(C)CNC(=O)CC1Nc2ccccc2NC1=O (stereo not drawn) | 38.8 (≈ 148 µM)
O=C(c1cn(Cc2ccccc2F)c2ncccc12)C(F)(F)F | 2.8 (≈ 8.69 µM)
CCOC(=O)C(O)C1CCc2c([nH]c3ccc(C)cc23)C1=O (stereo not drawn) | 22.6 (≈ 75 µM)
CN(c1ccccc1)S(=O)(=O)c1cccc(C(=O)NC2CCCC2)c1 | 47.3 (≈ 132 µM)
O=C(O)c1ccc2c(c1)C(=O)N(c1ccc(C(=O)OCC(=O)c3ccccc3)cc1)C2=O | 45.4 (≈ 106 µM)
COc1ccc(C(=O)OCC(=O)NC2CC2)cc1OC | > 41.9
CC(=O)Nc1ccc(NC(=O)C(C)OC(=O)C2CCC2)cc1 (stereo not drawn) | > 45.7

Structure (SMILES) | solubility kinetic [µg/mL]
Cc1cccc(NC(=O)Nc2c(C)n(C)n(-c3ccccc3)c2=O)c1 | > 50.5
CCn1c(SCC(=O)N2CCCC2)nc2ccccc21 | > 43.4
O=C(CSc1ncccn1)NCCC1=CCCCC1 | > 41.6
Cc1ccc(S(=O)(=O)NCC(=O)OCC(=O)NCc2ccco2)cc1 | > 55
CCOc1ccccc1N=CC1=C(O)CC(c2ccccc2)CC1=O (stereo not drawn) | 3.4 (≈ 10.1 µM)
O=C(c1ccc(F)cc1)N1CCN(c2ccccn2)CC1 | > 42.8
FC(F)Oc1ccc(NC(=S)NC2CCCCCCC2)cc1 | 0.7 (≈ 2.13 µM)
COc1ccc(NC(=O)CC(C)CC(=O)NCc2ccc(F)cc2)c(OC)c1 (stereo not drawn) | 6.8 (≈ 17.5 µM)
COC1=C(N2CCOCC2)C(=O)c2ccccc2C1=O | > 41
O=C(Nc1cc(C(F)(F)F)ccc1-n1cncn1)C1CC1 | > 44.4
COc1ccc(NC(=O)C2CCCN(c3ncccn3)C2)cc1 (stereo not drawn) | 14.5 (≈ 46.4 µM)
Cc1nc(S/C(C(=O)O)=C2/C(=O)Nc3ccccc32)n[nH]1 | > 45.3
Cc1nnc(SCC(=O)Nc2nccs2)o1 | > 38.4
COc1ccc(CNC(=S)Nc2cccc(OC)c2)cc1 | 41.1 (≈ 136 µM)
O=[N+]([O-])c1ccc2nc(NS(=O)(=O)c3ccccc3[N+](=O)[O-])sc2c1 | 55.7 (≈ 146 µM)
CC(C)(C)C(=O)Nc1ccc(C(=O)COC(=O)c2ccccn2)cc1 | 50.2 (≈ 147 µM)
O=C(Nc1ccc(C(=O)N2CCCc3ccccc32)cc1)c1cccs1 | < 0.4
O=c1c2cc(Br)ccc2nc(-c2ccccc2)n1O | 39.4 (≈ 124 µM)
O=C(c1cccc(S(=O)(=O)N2CCN(c3ccc(F)cc3)CC2)c1)N1CCCC1 | 61.9 (≈ 148 µM)
Cl.NC(N)=Nc1nc(-c2ccccc2)c2cc(Cl)ccc2n1 | 9.7
Cc1ccccc1NC(=S)NC(=O)C1CCCCC1 | 1 (≈ 3.62 µM)
CCc1cccc(C)c1NC(=O)C1CC(=O)N(C2CCCC2)C1 (stereo not drawn) | > 47.2
CSCC(=O)Nc1cc(C)on1 | > 27.9
Cn1cnnc1SCC(=O)Nc1ccccc1F | > 39.9

Structure (SMILES) | solubility kinetic [µg/mL]
Cc1ccc(C(=O)/C=C/N(C)C)cn1 | 26.6 (≈ 140 µM)
CC(=O)N/C(N)=N/c1nc(=O)c2ccccc2s1 | 3.5 (≈ 13.3 µM)
Cc1ccnc(NC(=O)CC(c2ccccc2)c2ccccc2)n1 | 35.7 (≈ 112 µM)
Cc1ccc(NC(=O)CN2C(=O)NC(C)(CC(C)C)C2=O)cc1F (stereo not drawn) | > 50.3
CCOC(=O)Nc1cccc(NC(=O)c2ccccc2F)c1 | > 45.3
CC(C)NC(=O)NC(=O)CSc1ncccn1 | > 38.1
Cc1nc2ccccn2c1C(=O)CSc1cccc(Cl)c1 | 3.9 (≈ 12.3 µM)
Cc1ccc(C(=O)N2CCn3c(C)ccc3C2C)cc1 (stereo not drawn) | 23.1 (≈ 86.1 µM)
CC1(C)CC(=O)C2=C(C1)OC(N)=C(C#N)C2c1ccc[nH]1 (stereo not drawn) | > 42.5
CCCOc1ccc(N2C(=O)CC(NCC(=O)OCC)C2=O)cc1 (stereo not drawn) | > 50.2
CCCc1nnc(SCC(=O)Nc2nccs2)o1 | > 42.7
Cc1nc2ccccc2[nH]c1=O | > 24
O=C(NCc1ccc2c(c1)OCO2)Nc1ccc2nsnc2c1 | 2.5 (≈ 7.61 µM)
CC(=O)c1cn(CC(=O)Nc2ccc(C)c(C)c2)c2ccccc12 | < 0.3
CC(=O)NCCc1nc2cc(NC(=O)c3ccccc3)ccc2n1C | > 50.5
NS(=O)(=O)c1cccc(Nc2nc3ccccc3nc2NS(=O)(=O)c2ccc(Cl)cc2)c1 | 7.4 (≈ 15.1 µM)
COc1ccc(S(=O)(=O)NCC2CCC(C(=O)O)CC2)cc1 (stereo not drawn) | > 49.1
Cc1ccc(C)c(CSC2=NCCN2C(=O)c2cccs2)c1 | 1 (≈ 3.03 µM)
Cc1cc(OCCCCN2C(=O)NC(C)(C)C2=O)ccc1[N+](=O)[O-] | > 50.3
CC(=O)c1ccc(NC(=S)Nc2ccc3[nH]c(=O)[nH]c3c2)cc1 | 5.6 (≈ 17.2 µM)
CC(C)n1c(N2CCCC2)nc2c1c(=O)[nH]c(=O)n2C | > 41.6
CCc1cccc(CC)c1NC(=S)Nc1cccc(Cl)c1Cl | 1.4 (≈ 3.96 µM)
Cc1ccc(CN(C)C(=O)CCNS(=O)(=O)c2ccccc2)o1 | > 50.5
COc1cc(C(=O)NCC(=O)OCc2ccc(F)cc2)cc(OC)c1OC | 11.8 (≈ 31.3 µM)

Structure (SMILES) | solubility kinetic [µg/mL]
COc1ccc(CCN2C(=O)CC(C(N)=O)SC2=Nc2ccccc2)cc1 (stereo not drawn) | 44.5 (≈ 116 µM)
CC(NC(=O)COC(=O)C1CC1C)c1cccc(Cl)c1 (stereo not drawn) | > 44.4
Cc1ccc(NS(=O)(=O)c2ccc(C)c(NC(=S)NCCN3CCOCC3)c2)c(C)c1 | > 69.4
Cc1ccccc1CN(C)C(=O)COC(=O)c1ccc2[nH]c(C)c(C)c2c1 | 2.1 (≈ 5.76 µM)
COc1cc(C2NC(=O)NC(C)=C2C(C)=O)cc(OC)c1OC (stereo not drawn) | 38.7 (≈ 121 µM)
O=C(NNC(=S)NC(=O)c1cccs1)c1cccnc1 | > 46
Oc1ccc(-c2csc(Nc3ccccn3)n2)cc1O | 11.3 (≈ 39.6 µM)
Cc1cccc(C(=O)N2CCCC(Nc3ccc(C)c(C)c3)C2)n1 (stereo not drawn) | 42.1 (≈ 130 µM)
OC(CNCc1ccccc1F)COc1cccc2ccccc12 (stereo not drawn) | 39.6 (≈ 122 µM)
O=C(COC(=O)c1ccc([N+](=O)[O-])o1)Nc1ccc(N2CCOCC2)cc1 | 50.6 (≈ 135 µM)
Br.C=CCn1c(=N)n(CC(=O)c2ccccc2)c2ccccc21 | > 55.8
COc1ccc(CCNC(=O)COC(=O)c2cc(Cl)nc(Cl)c2)cc1 | 23.6 (≈ 61.6 µM)
COc1ccc(N2CCN(C(=O)/C=C/c3ccco3)CC2)cc1 | 10.5 (≈ 33.6 µM)
O=c1cc(C(F)(F)F)[nH]c2ccccc12 | > 32
CCCn1c(C(O)c2cccc(OC)c2)nc2ccccc21 (stereo not drawn) | 39.4 (≈ 133 µM)
Nc1ccc(-n2cc(-c3ccccc3)[nH]c2=S)cc1 | 12.6 (≈ 47.1 µM)
CCOc1ccc(CC(=O)N2CCN=C2SC)cc1 | > 41.8
O=C(COC(=O)c1ccc([N+](=O)[O-])o1)NCc1ccc2c(c1)OCO2 | > 52.2
Cc1cc(C(=O)COC(=O)c2cccnc2Cl)c(C)n1C | 13 (≈ 42.4 µM)
CC(NS(=O)(=O)c1ccccc1)C(=O)NC1CCCC1 (stereo not drawn) | > 44.5
CCn1cc(CCC(=O)O)c(C)n1 | > 27.3
Cc1ccc(S(=O)(=O)NC(=O)Nc2ccccc2)cc1 | 41.8 (≈ 144 µM)
COc1ccccc1OCCn1c(SCC(=O)O)nc2ccccc21 | > 53.8
CCOc1ccc(NC(=O)Nc2ccc3c(c2)nc(C)n3C)cc1 | 2.5 (≈ 7.71 µM)

Structure (SMILES) | solubility kinetic [µg/mL]
COC(=O)NC(C)N1C(=O)C2C3C=CC(C3)C2C1=O (stereo not drawn) | > 39.6
COc1ccc(S(=O)(=O)N2CCCC2c2cccs2)cc1 (stereo not drawn) | 27.4 (≈ 84.7 µM)
CC1CN2C(c3ccc([N+](=O)[O-])cc3)=CSC2=N1 (stereo not drawn) | 26.3 (≈ 101 µM)
O=C(O)CSc1nc2sc3c(c2c(=O)n1-c1ccccc1)CCC3 | > 53.8
Cc1nc(N)ncc1Sc1ccccc1 | 5.2 (≈ 23.9 µM)
Cc1nc2ccc(NC(=O)c3ccc(Br)o3)cc2s1 | 5.1 (≈ 15.1 µM)
CN1CCSc2ccc(C(=O)Nc3cccc(F)c3)cc21 | 1.4 (≈ 4.63 µM)
CC(=O)Cc1nsc(NC(=O)c2ccc(F)cc2)n1 | > 41.9
O=C(COC(=O)COc1ccccc1)NCCC1=CCCCC1 | 38.5 (≈ 121 µM)
Cc1cc(OCCCn2ccnc2)ccc1[N+](=O)[O-].O=C(O)C(=O)O | 36.8
C/C(=N\S(=O)(=O)c1ccc(C)cc1)N(C)C | > 36
O=C(NCCCn1ccnc1)c1cccc(Cl)c1 | > 39.6
CCCn1cc(C(=O)OCC)c(=O)c2cc(F)c(F)cc21 | 34.9 (≈ 118 µM)
Cn1c(=O)c2c(nc3n2CC(CO)O3)n(C)c1=O (stereo not drawn) | > 37.8
CN(C)c1ccc(NC(=O)CN2C(=O)c3ccccc3C2=O)cc1 | 11.3 (≈ 34.9 µM)
CCS(=O)(=O)Nc1cccc(-c2cn3c(n2)SCC3)c1 | > 46.4
CC1CCN(C(=O)CN2C(=O)COc3ccc(Cl)cc32)CC1 | > 48.4
CSc1ccccc1NC(=O)c1ccc([N+](=O)[O-])cc1 | 15.9 (≈ 55.1 µM)
COc1ccc(S(N)(=O)=O)cc1C(=O)OCC(=O)N1c2ccccc2NC(=O)C1(C)C | > 67.1
Cc1cc(NC(=O)CSc2ncc(C(F)(F)F)cc2Cl)no1 | 1.2 (≈ 3.41 µM)
Cc1cnc(NC(=O)c2cc(S(=O)(=O)N(C)C)ccc2N2CCCC2)s1 | 4.7 (≈ 11.9 µM)
CC(=O)N(c1nc(CCl)cs1)c1ccc(C)cc1C | > 44.2
